A short description of data set [1]: Microsomal protein binding by rapid equilibrium dialysis (HLM). The procedure:
A 200 μL spiked samples and 400 μL PBS were placed into the “sample” and “buffer” chambers of the RED device, respectively. After 4-h incubation to equilibrate between the buffer and plasma compartments, the RED plate was sampled from both compartments. The samples were matrix-matched for analysis by addition of either diluted plasma or buffer; (a) blank diluted plasma added to the buffer samples and (b) blank buffer added to the diluted plasma sample, at a ratio of 50:50 v/v. The unbound fractions in microsomes and diluted plasma were determined by dividing the analyte/IS peak area ratios of the (a) sample by those of the (b) sample. The unbound fraction in diluted plasma (fu,d) was converted to the unbound fraction in undiluted plasma (fu) using a Kalvass equation as below (DF: dilution factor). (1) fu=1/DF/[(1/fu,d)−1]+1/DF
For orientation: In equilibrium dialysis only unbound substance equilibrates across the membrane.

Data set [2] deals with microsomal metabolism of RPG in HLM. Nature of the data set: In vitro inhibition of RPG metabolism by QCT in HLM. The class given is in vitro ADME, human. The following applies: HLM. The procedure:
The intrinsic metabolic clearance (CLint) was calculated as Vmax/Km. […] The parameter α is indicative of the inhibition type. The mixed model is a general equation that includes competitive, uncompetitive, and noncompetitive inhibition as special cases. When α = 1, the mixed model is identical to a noncompetitive inhibition. When α is very large (α→∞) or very small (α→0), the mixed model becomes identical to competitive inhibition or uncompetitive inhibition, respectively.

Data set [3] can be described thus: Blood-to-plasma concentration ratio (human whole blood). The following applies: RPG and QCT 5 μM each. The class given is in vitro ADME. How it is done:
A plasma sample was obtained by centrifugation of the blood sample at 2000× g for 5 min.

Regarding `CCOc1cc(CC(=O)N[C@@H](CC(C)C)c2ccccc2N2CCCCC2)ccc1C(=O)O` [RPG, Repaglinide], the “Change of fuMIC of RPG by the presence of QCT” value in data set [1] (HLM, RPG and QCT 5 μM each) was “not significantly altered”. The free fraction (fraction unbound) – broadly, the share of the substance not bound to proteins or other matrix – at 4 h, 5 μM in data set [1] (human, liver microsomes) came out at 0.62 ± 0.152. Also, the “Km of RPG metabolism in the Ki estimation study” value in data set [2] (QCT 0 μM) was 23 µM; in data set [2] (QCT 200 μM), 111 µM. For the same compound, the “Change of RB of RPG by the presence of QCT” value in data set [3] is on record as “not significantly altered”.

These data come from article PMC8224802 (Pharmaceutics, 2021).
